According to PubChem BioAssay AID248 (DTP/NCI, 2004):
Several values for one entry are separate records, joined by “and”; a condition that tells them apart may be missing. Equal values may be shown once. Inconclusive results and toxic doses are left out. Cut-off read from the data, not from the text of the source: active = T/C of 150% or more; inactive = T/C below 125%.

Tested on: L1210 leukemia ip in BDF1 mice, survival T/C
Test: NCI In Vivo Anticancer Drug Screen. Data for tumor model L1210 Leukemia (intraperitoneal) in B6D2F1 (BDF1) mice
Conditions: endpoint: mean survival time, higher = longer survival
How it was run: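 Each compound was tested against a transplantable tumor grown in mice. The endpoint was survival, with treated animals benchmarked against vehicle controls as a simple ratio.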

[1] = dose: 100.0 mg/kg/injection, schedule: Q01DX001 (ip), vehicle: saline
[2] = dose: 200.0 mg/kg/injection, schedule: Q01DX001 (ip), vehicle: saline
[3] = dose: 400.0 mg/kg/injection, schedule: Q01DX001 (ip), vehicle: saline
[4] = dose: 100.0 mg/kg/injection, schedule: Q01DX009 (ip), vehicle: Klucel (hydroxypropylcellulose) (HPC)
[5] = dose: 100.0 mg/kg/injection, schedule: Q01DX001 (ip), vehicle: saline with Tween-80
[6] = dose: 200.0 mg/kg/injection, schedule: Q01DX001 (ip), vehicle: saline with Tween-80
[7] = dose: 400.0 mg/kg/injection, schedule: Q01DX001 (ip), vehicle: saline with Tween-80
[8] = dose: 200.0 mg/kg/injection, schedule: Q01DX009 (ip), vehicle: Klucel (hydroxypropylcellulose) (HPC)
[9] = dose: 100.0 mg/kg/injection, schedule: Q04DX003 (ip), vehicle: Klucel (hydroxypropylcellulose) (HPC)
[10] = dose: 200.0 mg/kg/injection, schedule: Q04DX003 (ip), vehicle: Klucel (hydroxypropylcellulose) (HPC)
[11] = dose: 400.0 mg/kg/injection, schedule: Q04DX003 (ip), vehicle: Klucel (hydroxypropylcellulose) (HPC)
[12] = dose: 100.0 mg/kg/injection, schedule: Q01DX009 (ip), vehicle: other
[13] = dose: 100.0 mg/kg/injection, schedule: Q04DX002 (ip), vehicle: saline

Measured: T/C

CCCCCCCCCC[n+]1cccc(C#N)c1
inactive: dose: 5.0 mg/kg/injection, schedule: Q01DX009 (ip), vehicle: saline 109 % of control | dose: 10.0 mg/kg/injection, schedule: Q01DX001 (ip), vehicle: saline 100 % of control | dose: 10.0 mg/kg/injection, schedule: Q01DX009 (ip), vehicle: saline 98 % of control | dose: 10.0 mg/kg/injection, schedule: Q04DX003 (ip), vehicle: saline 98 % of control | dose: 20.0 mg/kg/injection, schedule: Q01DX001 (ip), vehicle: saline 95 % of control | dose: 20.0 mg/kg/injection, schedule: Q01DX009 (ip), vehicle: saline 93 % of control | dose: 20.0 mg/kg/injection, schedule: Q04DX003 (ip), vehicle: saline 93 % of control | dose: 40.0 mg/kg/injection, schedule: Q01DX001 (ip), vehicle: saline 93 % of control | dose: 40.0 mg/kg/injection, schedule: Q04DX003 (ip), vehicle: saline 94 % of control

CCC(C)(C)N
inactive: [1] 91 % of control | [2] 97 % of control | [3] 101 % of control

C[Si](C)(C)OC(C(F)(F)F)C(F)(F)F
inactive: dose: 100.0 mg/kg/injection, schedule: Q01DX001 (ip), vehicle: steriod suspending solution 98 % of control | dose: 200.0 mg/kg/injection, schedule: Q01DX001 (ip), vehicle: steriod suspending solution 96 % of control | dose: 400.0 mg/kg/injection, schedule: Q01DX001 (ip), vehicle: steriod suspending solution 86 % of control

C/C(=C\Br)CBr
inactive: dose: 100.0 mg/kg/injection, schedule: Q01DX009 (ip), vehicle: acetone 97 % of control

CCOC(=O)c1ccc(NCC2=Nc3c(N)nc(N)nc3NC2)cc1
inactive: dose: 3.0 mg/kg/injection, schedule: Q01DX009 (ip), vehicle: Klucel (hydroxypropylcellulose) (HPC) 92 % of control | dose: 6.0 mg/kg/injection, schedule: Q01DX009 (ip), vehicle: Klucel (hydroxypropylcellulose) (HPC) 97 % of control | dose: 12.0 mg/kg/injection, schedule: Q01DX009 (ip), vehicle: Klucel (hydroxypropylcellulose) (HPC) 101 % of control and 108 % of control | dose: 25.0 mg/kg/injection, schedule: Q01DX009 (ip), vehicle: Klucel (hydroxypropylcellulose) (HPC) 97 % of control | dose: 50.0 mg/kg/injection, schedule: Q01DX009 (ip), vehicle: Klucel (hydroxypropylcellulose) (HPC) 90 % of control | [4] 89 % of control

O=c1cc(NCc2ccc(Cl)cc2)[nH]c(=O)[nH]1
inactive: [5] 108 % of control | [6] 95 % of control | [7] 98 % of control

O=C(Nc1ccc(Cl)cc1[N+](=O)[O-])N1CCN(c2ccccc2)CC1
inactive: dose: 44.0 mg/kg/injection, schedule: Q01DX009 (ip), vehicle: Klucel (hydroxypropylcellulose) (HPC) 101 % of control | dose: 66.0 mg/kg/injection, schedule: Q01DX009 (ip), vehicle: Klucel (hydroxypropylcellulose) (HPC) 97 % of control | [4] 101 % of control | dose: 150.0 mg/kg/injection, schedule: Q01DX009 (ip), vehicle: Klucel (hydroxypropylcellulose) (HPC) 95 % of control | [8] 96 % of control | dose: 400.0 mg/kg/injection, schedule: Q01DX009 (ip), vehicle: Klucel (hydroxypropylcellulose) (HPC) 101 % of control

CC(C)(C)CC(C)(C)c1ccc(OCCOc2ccc(NS(=O)(=O)c3ccc([N+](=O)[O-])cc3)cc2)cc1
inactive: [9] 91 % of control | [10] 100 % of control | [11] 91 % of control

CN1CCCN(C(c2ccccc2)c2ccc(Cl)cc2)CC1 (stereo not given)
inactive: dose: 7.81 mg/kg/injection, schedule: Q01DX009 (ip), vehicle: saline 96 % of control | dose: 15.62 mg/kg/injection, schedule: Q01DX009 (ip), vehicle: saline 105 % of control | dose: 31.25 mg/kg/injection, schedule: Q01DX009 (ip), vehicle: saline 96 % of control

CC(C)(C)NC(=O)C1C(c2ccccc2)C1c1ccccc1 (stereo not given)
inactive: dose: 100.0 mg/kg/injection, schedule: Q04DX002 (ip), vehicle: Klucel (hydroxypropylcellulose) (HPC) 90 % of control | dose: 200.0 mg/kg/injection, schedule: Q04DX002 (ip), vehicle: Klucel (hydroxypropylcellulose) (HPC) 113 % of control | dose: 400.0 mg/kg/injection, schedule: Q04DX002 (ip), vehicle: Klucel (hydroxypropylcellulose) (HPC) 100 % of control

O=C(NCCCCC(NC(=O)OCc1ccccc1)C(=O)NCCCCCCN(CCCCCCNC(=O)C(CCCCNC(=O)OCc1ccccc1)NC(=O)OCc1ccccc1)C(=O)C(CCCCNC(=O)OCc1ccccc1)NC(=O)OCc1ccccc1)OCc1ccccc1 (stereo not given)
inactive: [1] 100 % of control | [2] 94 % of control | [3] 94 % of control

Oc1ccccc1N=Cc1ccc(C=Nc2ccccc2O)cc1
inactive: dose: 100.0 mg/kg/injection, schedule: Q01DX009 (ip), vehicle: gum acacia 101 % of control | dose: 100.0 mg/kg/injection, schedule: Q04DX003 (ip), vehicle: gum acacia 100 % of control | dose: 200.0 mg/kg/injection, schedule: Q01DX009 (ip), vehicle: gum acacia 97 % of control | dose: 200.0 mg/kg/injection, schedule: Q04DX003 (ip), vehicle: gum acacia 98 % of control | dose: 400.0 mg/kg/injection, schedule: Q01DX009 (ip), vehicle: gum acacia 107 % of control | dose: 400.0 mg/kg/injection, schedule: Q04DX003 (ip), vehicle: gum acacia 94 % of control

OCc1ccc(OCc2ccccc2)c(OCc2ccccc2)c1
inactive: [12] 87 % of control | dose: 100.0 mg/kg/injection, schedule: Q04DX003 (ip), vehicle: other 94 % of control | dose: 200.0 mg/kg/injection, schedule: Q04DX003 (ip), vehicle: other 98 % of control | dose: 400.0 mg/kg/injection, schedule: Q04DX003 (ip), vehicle: other 90 % of control

O=C(CCl)N=c1cc(-c2ccc(Cl)cc2)ss1
inactive: dose: 50.0 mg/kg/injection, schedule: Q04DX002 (ip), vehicle: saline 98 % of control | [13] 98 % of control

CCCCC(=O)N(CCCC)CCCC
inactive: [13] 107 % of control | dose: 200.0 mg/kg/injection, schedule: Q04DX002 (ip), vehicle: saline 114 % of control | dose: 400.0 mg/kg/injection, schedule: Q04DX002 (ip), vehicle: saline 93 % of control

CCCCNC(C)(C)C1(c2ccc(Cl)cc2)SSC(c2ccc(Cl)cc2)(C(C)(C)NCCCC)SS1 (stereo not given)
inactive: [4] 99 % of control | [9] 93 % of control | [8] 99 % of control | [10] 101 % of control | [11] 97 % of control

Cc1cccc(C(=O)OCCBr)c1
inactive: dose: 100.0 mg/kg/injection, schedule: Q04DX003 (ip), vehicle: saline sonified 98 % of control | dose: 200.0 mg/kg/injection, schedule: Q04DX003 (ip), vehicle: saline sonified 104 % of control | dose: 400.0 mg/kg/injection, schedule: Q04DX003 (ip), vehicle: saline sonified 106 % of control

O=c1ccc2ccccc2[nH]1.[Mn]
inactive: dose: 5.0 mg/kg/injection, schedule: Q01DX001 (ip), vehicle: carboxymethylcellulose (CMC) 95 % of control | dose: 10.0 mg/kg/injection, schedule: Q01DX001 (ip), vehicle: carboxymethylcellulose (CMC) 95 % of control | dose: 20.0 mg/kg/injection, schedule: Q01DX001 (ip), vehicle: carboxymethylcellulose (CMC) 97 % of control | dose: 40.0 mg/kg/injection, schedule: Q01DX001 (ip), vehicle: carboxymethylcellulose (CMC) 97 % of control

NC(=O)c1cc(Cl)cc(N)c1Cl
inactive: [5] 107 % of control | [6] 104 % of control | [7] 117 % of control

CCCCCCCCNC(=O)c1ccc([N+](=O)[O-])s1
inactive: dose: 100.0 mg/kg/injection, schedule: Q01DX005 (ip), vehicle: saline 94 % of control | dose: 200.0 mg/kg/injection, schedule: Q01DX005 (ip), vehicle: saline 94 % of control | dose: 400.0 mg/kg/injection, schedule: Q01DX005 (ip), vehicle: saline 94 % of control

O=C(Nc1ccc(C(Cl)(Cl)Cl)cc1)Nc1cc(Cl)ccc1Cl
inactive: dose: 25.0 mg/kg/injection, schedule: Q01DX009 (ip), vehicle: other 109 % of control | dose: 50.0 mg/kg/injection, schedule: Q01DX009 (ip), vehicle: other 93 % of control | [4] 93 % of control | [12] 95 % of control
